Measured values: publication doi:10.1101/2020.06.11.145995v1 (biorxiv, 2020)
Read-outs that look alike come from different tables or passages of the source.

Tests used:
Assay in all cases: biochemical
PRKCE = PRKCE (Homo sapiens, UniProt Q02156)
RIOK3 = RIOK3 (Homo sapiens, UniProt O14730)
TIE1 = TIE1 (Homo sapiens, UniProt P35590)
RET(V804L) = RET(V804L) (Homo sapiens, UniProt P07949, V804L)
NEK2 = NEK2 (Homo sapiens, UniProt P51955)
PRKD2 = PRKD2 (Homo sapiens, UniProt Q9BZL6)
RPS6KA5 = RPS6KA5 (Homo sapiens, UniProt O75582)
PAK7 = PAK7 (Homo sapiens, UniProt Q9P286)
PIK3C2G = PIK3C2G (Homo sapiens, UniProt O75747)
TRKA = TRKA (Homo sapiens, UniProt P04629)
NEK9 = NEK9 (Homo sapiens, UniProt Q8TD19)
WEE1 = WEE1 (Homo sapiens, UniProt P30291)
PAK4 = PAK4 (Homo sapiens, UniProt O96013)
RIOK1 = RIOK1 (Homo sapiens, UniProt Q9BRS2)
YES = YES (Homo sapiens, UniProt P07947)
PRKCI = PRKCI (Homo sapiens, UniProt P41743)
ROCK1 = ROCK1 (Homo sapiens, UniProt Q13464)
TLK2 = TLK2 (Homo sapiens, UniProt Q86UE8)
PIK3CA(H1047Y) = target: PIK3CA(H1047Y (Homo sapiens, UniProt P42336, H1047Y))
p38-beta = p38-beta (Homo sapiens, UniProt Q15759)
RET = RET (Homo sapiens, UniProt P07949)
TRKB = TRKB (Homo sapiens, UniProt Q16620)
NEK6 = NEK6 (Homo sapiens, UniProt Q9HC98)
SIK = SIK (Homo sapiens, UniProt P57059)
YSK1 = YSK1 (Homo sapiens, UniProt O00506)
NIM1 = NIM1 (Homo sapiens, UniProt Q8IY84)
TNIK = TNIK (Homo sapiens, UniProt Q9UKE5)
PHKG2 = PHKG2 (Homo sapiens, UniProt P15735)
SgK110 = SgK110 (Homo sapiens, UniProt P0C264)
[1] = read-out: CPT-1-70-1 (1μM) % control
[2] = read-out: HYJ-2-002-1 (1μM) % control

RPS6KA5, sequence (O75582 whole entry): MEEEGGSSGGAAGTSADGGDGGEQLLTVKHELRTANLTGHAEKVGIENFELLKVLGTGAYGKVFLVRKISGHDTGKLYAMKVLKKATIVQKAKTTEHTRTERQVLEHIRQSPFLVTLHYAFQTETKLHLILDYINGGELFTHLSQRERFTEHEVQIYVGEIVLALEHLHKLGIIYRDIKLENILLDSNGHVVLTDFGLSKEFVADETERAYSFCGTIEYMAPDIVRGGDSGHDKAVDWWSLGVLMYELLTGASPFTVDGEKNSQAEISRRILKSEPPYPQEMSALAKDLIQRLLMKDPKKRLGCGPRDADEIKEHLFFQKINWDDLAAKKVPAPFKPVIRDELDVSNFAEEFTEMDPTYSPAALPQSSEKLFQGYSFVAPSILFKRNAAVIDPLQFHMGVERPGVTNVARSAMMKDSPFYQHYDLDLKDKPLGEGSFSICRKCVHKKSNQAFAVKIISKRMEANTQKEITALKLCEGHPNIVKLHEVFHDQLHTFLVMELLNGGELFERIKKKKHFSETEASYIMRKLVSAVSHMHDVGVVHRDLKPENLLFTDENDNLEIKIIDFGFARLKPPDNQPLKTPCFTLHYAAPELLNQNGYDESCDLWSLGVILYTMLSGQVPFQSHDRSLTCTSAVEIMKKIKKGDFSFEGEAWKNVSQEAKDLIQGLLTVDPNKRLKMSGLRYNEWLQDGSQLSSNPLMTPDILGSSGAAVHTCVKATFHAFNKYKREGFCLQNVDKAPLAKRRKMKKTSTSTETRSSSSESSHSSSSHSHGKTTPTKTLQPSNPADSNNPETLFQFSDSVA
YSK1, sequence (O00506 whole entry): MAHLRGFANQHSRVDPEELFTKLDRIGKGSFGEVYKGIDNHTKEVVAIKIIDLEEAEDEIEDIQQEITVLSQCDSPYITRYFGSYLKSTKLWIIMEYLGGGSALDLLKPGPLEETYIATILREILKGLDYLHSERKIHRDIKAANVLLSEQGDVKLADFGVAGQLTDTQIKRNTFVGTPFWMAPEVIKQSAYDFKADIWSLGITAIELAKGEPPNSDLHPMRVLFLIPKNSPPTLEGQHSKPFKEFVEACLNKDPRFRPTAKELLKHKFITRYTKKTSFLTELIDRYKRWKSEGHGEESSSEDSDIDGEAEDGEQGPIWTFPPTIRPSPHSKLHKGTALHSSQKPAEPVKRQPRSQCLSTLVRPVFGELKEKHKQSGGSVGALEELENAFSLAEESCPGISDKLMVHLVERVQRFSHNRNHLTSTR
SIK, sequence (P57059 whole entry): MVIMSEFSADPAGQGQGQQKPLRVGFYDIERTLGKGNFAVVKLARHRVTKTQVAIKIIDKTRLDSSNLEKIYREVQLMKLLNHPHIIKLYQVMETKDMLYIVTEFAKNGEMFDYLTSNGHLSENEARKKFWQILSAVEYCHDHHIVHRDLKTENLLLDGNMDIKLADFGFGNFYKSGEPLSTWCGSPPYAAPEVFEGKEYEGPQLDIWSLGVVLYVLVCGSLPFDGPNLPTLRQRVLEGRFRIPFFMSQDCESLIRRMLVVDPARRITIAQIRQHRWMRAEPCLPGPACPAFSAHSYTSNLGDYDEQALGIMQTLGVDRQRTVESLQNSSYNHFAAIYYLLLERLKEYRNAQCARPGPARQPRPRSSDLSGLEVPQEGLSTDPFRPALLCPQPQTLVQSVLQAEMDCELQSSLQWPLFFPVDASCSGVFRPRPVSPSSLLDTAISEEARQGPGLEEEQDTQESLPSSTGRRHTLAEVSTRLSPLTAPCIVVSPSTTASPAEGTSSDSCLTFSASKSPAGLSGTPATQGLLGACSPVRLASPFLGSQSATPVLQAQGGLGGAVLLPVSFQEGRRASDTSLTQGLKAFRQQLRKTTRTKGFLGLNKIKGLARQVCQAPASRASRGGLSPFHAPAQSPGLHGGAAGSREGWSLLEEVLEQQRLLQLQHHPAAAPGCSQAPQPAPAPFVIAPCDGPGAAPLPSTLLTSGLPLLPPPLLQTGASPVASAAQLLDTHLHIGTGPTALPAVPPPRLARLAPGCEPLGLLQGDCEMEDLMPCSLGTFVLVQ
PRKD2, sequence (Q9BZL6 whole entry): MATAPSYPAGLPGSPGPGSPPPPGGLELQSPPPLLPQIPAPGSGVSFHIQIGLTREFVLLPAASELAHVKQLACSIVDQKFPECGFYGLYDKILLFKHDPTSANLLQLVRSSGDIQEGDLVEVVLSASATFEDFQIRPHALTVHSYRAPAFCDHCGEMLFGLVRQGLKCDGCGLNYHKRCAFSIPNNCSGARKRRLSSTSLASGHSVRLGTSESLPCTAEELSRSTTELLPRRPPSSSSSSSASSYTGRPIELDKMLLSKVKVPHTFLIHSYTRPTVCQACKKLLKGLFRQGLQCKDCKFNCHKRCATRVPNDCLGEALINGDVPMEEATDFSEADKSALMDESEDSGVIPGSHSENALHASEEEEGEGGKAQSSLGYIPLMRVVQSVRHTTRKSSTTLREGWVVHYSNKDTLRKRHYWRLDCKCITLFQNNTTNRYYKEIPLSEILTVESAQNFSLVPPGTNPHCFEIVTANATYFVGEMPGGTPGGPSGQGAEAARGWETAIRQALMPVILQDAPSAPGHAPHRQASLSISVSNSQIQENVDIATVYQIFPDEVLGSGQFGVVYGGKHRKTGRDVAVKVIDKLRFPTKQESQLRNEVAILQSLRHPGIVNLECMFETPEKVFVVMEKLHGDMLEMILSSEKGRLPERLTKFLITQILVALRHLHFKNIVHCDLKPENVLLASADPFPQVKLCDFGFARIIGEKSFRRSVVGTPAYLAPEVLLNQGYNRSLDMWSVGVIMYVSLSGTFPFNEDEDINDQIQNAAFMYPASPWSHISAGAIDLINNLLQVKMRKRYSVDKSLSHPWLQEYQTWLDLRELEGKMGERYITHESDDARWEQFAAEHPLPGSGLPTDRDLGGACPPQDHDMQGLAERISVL
RIOK1, sequence (Q9BRS2 whole entry): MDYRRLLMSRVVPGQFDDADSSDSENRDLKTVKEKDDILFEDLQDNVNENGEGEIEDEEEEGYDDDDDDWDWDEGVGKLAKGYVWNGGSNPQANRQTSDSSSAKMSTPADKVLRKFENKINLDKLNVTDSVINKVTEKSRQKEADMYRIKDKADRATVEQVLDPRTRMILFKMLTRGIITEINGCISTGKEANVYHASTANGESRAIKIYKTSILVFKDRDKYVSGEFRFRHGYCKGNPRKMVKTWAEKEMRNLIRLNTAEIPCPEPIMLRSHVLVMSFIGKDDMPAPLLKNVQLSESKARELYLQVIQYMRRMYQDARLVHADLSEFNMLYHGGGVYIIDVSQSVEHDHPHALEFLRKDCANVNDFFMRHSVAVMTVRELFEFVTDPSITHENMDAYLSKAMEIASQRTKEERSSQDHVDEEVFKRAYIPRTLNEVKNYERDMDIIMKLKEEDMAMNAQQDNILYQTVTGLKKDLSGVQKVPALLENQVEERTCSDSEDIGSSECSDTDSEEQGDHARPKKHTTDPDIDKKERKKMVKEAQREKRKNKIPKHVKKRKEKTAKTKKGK
PIK3C2G, sequence (O75747 whole entry): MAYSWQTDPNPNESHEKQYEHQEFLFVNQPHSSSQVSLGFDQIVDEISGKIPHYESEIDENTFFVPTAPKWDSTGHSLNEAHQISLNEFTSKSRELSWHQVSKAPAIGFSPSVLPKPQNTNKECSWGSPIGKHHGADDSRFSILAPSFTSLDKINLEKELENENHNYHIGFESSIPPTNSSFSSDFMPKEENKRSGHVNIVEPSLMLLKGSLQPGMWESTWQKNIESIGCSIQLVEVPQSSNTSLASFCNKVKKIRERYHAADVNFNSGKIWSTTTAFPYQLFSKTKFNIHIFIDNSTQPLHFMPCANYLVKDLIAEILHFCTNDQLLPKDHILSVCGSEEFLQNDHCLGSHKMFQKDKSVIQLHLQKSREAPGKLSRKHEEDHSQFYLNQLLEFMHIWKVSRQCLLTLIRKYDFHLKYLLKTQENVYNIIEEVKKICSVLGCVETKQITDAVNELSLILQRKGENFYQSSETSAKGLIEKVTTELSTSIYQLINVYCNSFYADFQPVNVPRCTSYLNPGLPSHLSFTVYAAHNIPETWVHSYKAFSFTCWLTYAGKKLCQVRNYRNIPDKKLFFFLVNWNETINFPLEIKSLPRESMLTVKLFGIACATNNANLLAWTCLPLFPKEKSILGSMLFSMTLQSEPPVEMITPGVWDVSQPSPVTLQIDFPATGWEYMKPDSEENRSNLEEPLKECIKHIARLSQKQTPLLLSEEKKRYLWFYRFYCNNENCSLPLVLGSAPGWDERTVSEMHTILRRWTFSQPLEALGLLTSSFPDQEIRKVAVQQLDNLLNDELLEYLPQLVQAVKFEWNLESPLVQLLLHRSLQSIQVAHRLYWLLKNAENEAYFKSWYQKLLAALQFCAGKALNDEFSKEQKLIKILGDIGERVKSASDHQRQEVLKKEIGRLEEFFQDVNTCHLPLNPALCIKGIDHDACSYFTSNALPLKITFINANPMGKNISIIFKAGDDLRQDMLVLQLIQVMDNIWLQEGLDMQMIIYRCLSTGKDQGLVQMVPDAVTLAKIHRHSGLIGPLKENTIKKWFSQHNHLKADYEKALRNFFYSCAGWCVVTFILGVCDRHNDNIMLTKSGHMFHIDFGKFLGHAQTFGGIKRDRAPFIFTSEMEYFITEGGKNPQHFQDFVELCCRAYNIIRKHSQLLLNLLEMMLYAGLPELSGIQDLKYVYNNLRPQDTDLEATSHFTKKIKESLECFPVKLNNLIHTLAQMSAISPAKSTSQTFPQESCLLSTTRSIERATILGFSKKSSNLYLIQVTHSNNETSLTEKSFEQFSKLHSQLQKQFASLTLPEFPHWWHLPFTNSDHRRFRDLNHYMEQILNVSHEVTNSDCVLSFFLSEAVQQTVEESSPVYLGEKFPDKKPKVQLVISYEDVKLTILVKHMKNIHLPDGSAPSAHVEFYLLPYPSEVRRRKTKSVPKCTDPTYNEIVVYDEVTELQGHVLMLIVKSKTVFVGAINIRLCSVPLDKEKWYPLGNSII

CN1CCN(c2ccc(Nc3nc(Oc4ccc(NC(=O)CCl)cc4)c4cc[nH]c4n3)cc2)CC1 [CPT1-70-1]
remaining activity at 1 µM (PRKCE; [1]): 63% | remaining activity at 1 µM (RIOK3; [1]): 53% | remaining activity at 1 µM (TIE1; [1]): 39% | remaining activity at 1 µM (RET(V804L); [1]): 11% | remaining activity at 1 µM (NEK2; [1]): 100% | remaining activity at 1 µM (PRKD2; [1]): 70% | remaining activity at 1 µM (RPS6KA5; read-out: CPT-1-70-1 (1μM) % control, Kin.Dom.1-N-terminal): 100% | remaining activity at 1 µM (PAK7; [1]): 13% | remaining activity at 1 µM (PIK3C2G; [1]): 100% | remaining activity at 1 µM (TRKA; [1]): 30% | remaining activity at 1 µM (NEK9; [1]): 100% | remaining activity at 1 µM (WEE1; [1]): 88% | remaining activity at 1 µM (PAK4; [1]): 12% | remaining activity at 1 µM (RIOK1; [1]): 49% | remaining activity at 1 µM (YES; [1]): 17% | remaining activity at 1 µM (PRKCI; [1]): 65% | remaining activity at 1 µM (ROCK1; [1]): 29% | remaining activity at 1 µM (TLK2; [1]): 100% | remaining activity at 1 µM (PIK3CA(H1047Y); [1]): 100% | remaining activity at 1 µM (p38-beta; [1]): 100% | remaining activity at 1 µM (RET; [1]): 25% | remaining activity at 1 µM (TRKB; [1]): 28% | remaining activity at 1 µM (NEK6; [1]): 100% | remaining activity at 1 µM (SIK; [1]): 100% | remaining activity at 1 µM (YSK1; [1]): 89% | remaining activity at 1 µM (NIM1; [1]): 100% | remaining activity at 1 µM (TNIK; [1]): 20% | remaining activity at 1 µM (PHKG2; [1]): 72% | remaining activity at 1 µM (SgK110; [1]): 100%

CCN1CCN(Cc2ccc(NC(=O)c3ccc(C)c(CCc4cnc5[nH]ccc5c4OC)c3)cc2C(F)(F)F)CC1 [HYJ-2-002-1]
remaining activity at 1 µM (PRKCE; [2]): 100% | remaining activity at 1 µM (RIOK3; [2]): 100% | remaining activity at 1 µM (TIE1; [2]): 4.3% | remaining activity at 1 µM (RET(V804L); [2]): 1.4% | remaining activity at 1 µM (NEK2; [2]): 95% | remaining activity at 1 µM (PRKD2; [2]): 42% | remaining activity at 1 µM (RPS6KA5; read-out: HYJ-2-002-1 (1μM) % control, Kin.Dom.1-N-terminal): 76% | remaining activity at 1 µM (RPS6KA5; read-out: HYJ-2-002-1 (1μM) % control, Kin.Dom.2-C-terminal): 100% | remaining activity at 1 µM (PAK7; [2]): 92% | remaining activity at 1 µM (PIK3C2G; [2]): 100% | remaining activity at 1 µM (TRKA; [2]): 6.6% | remaining activity at 1 µM (NEK9; [2]): 38% | remaining activity at 1 µM (WEE1; [2]): 100% | remaining activity at 1 µM (PAK4; [2]): 99% | remaining activity at 1 µM (RIOK1; [2]): 100% | remaining activity at 1 µM (YES; [2]): 0.55% | remaining activity at 1 µM (PRKCI; [2]): 73% | remaining activity at 1 µM (ROCK1; [2]): 98% | remaining activity at 1 µM (TLK2; [2]): 97% | remaining activity at 1 µM (PIK3CA(H1047Y); [2]): 100% | remaining activity at 1 µM (p38-beta; [2]): 0.35% | remaining activity at 1 µM (RET; [2]): 0.15% | remaining activity at 1 µM (TRKB; [2]): 4.2% | remaining activity at 1 µM (NEK6; [2]): 100% | remaining activity at 1 µM (SIK; [2]): 1.8% | remaining activity at 1 µM (YSK1; [2]): 87% | remaining activity at 1 µM (NIM1; [2]): 100% | remaining activity at 1 µM (TNIK; [2]): 11% | remaining activity at 1 µM (PHKG2; [2]): 73% | remaining activity at 1 µM (SgK110; [2]): 96%
